Reference: the kinase profiling compilation of Christmann-Franck et al. (2016)
Values belong to the molecule of their own block, whether it stands above or below them.

Legend:
PIM1 (human) [1] = target: PIM1 (human) (UniProt P11309); experiment: SelectScreen, TR FRET
PIM2 (human) [2] = target: PIM2 (human) (UniProt Q9P1W9); experiment: SelectScreen, TR FRET
ACVR2B (human) = ACVR2B (human) (UniProt Q13705); experiment: KINOMEscan competition binding; details: compound 10.0 µM
RIPK4 (human) = RIPK4 (human) (UniProt P57078); experiment: KINOMEscan competition binding; details: compound 10.0 µM
DDR1 (human) = DDR1 (human) (UniProt Q08345); experiment: KINOMEscan competition binding; details: compound 10.0 µM
EPHA3 (human) = EPHA3 (human) (UniProt P29320); experiment: KINOMEscan competition binding; details: compound 10.0 µM
CSNK2A2 (human) = CSNK2A2 (human) (UniProt P19784); experiment: KINOMEscan competition binding; details: compound 10.0 µM
MAPK8 (human) = MAPK8 (human) (UniProt P45983); experiment: KINOMEscan competition binding; details: compound 10.0 µM
CSK (human) = CSK (human) (UniProt P41240); experiment: KINOMEscan competition binding; details: compound 10.0 µM
STK16 (human) = STK16 (human) (UniProt O75716); experiment: KINOMEscan competition binding; details: compound 10.0 µM
TAOK3 (human) = TAOK3 (human) (UniProt Q9H2K8); experiment: KINOMEscan competition binding; details: compound 10.0 µM
PIM3 (human) = PIM3 (human) (UniProt Q86V86); experiment: KINOMEscan competition binding; details: compound 10.0 µM
PAK6 (human) = PAK6 (human) (UniProt Q9NQU5); experiment: KINOMEscan competition binding; details: compound 10.0 µM
HIPK1 (human) = HIPK1 (human) (UniProt Q86Z02); experiment: KINOMEscan competition binding; details: compound 10.0 µM
PLK4 (human) = PLK4 (human) (UniProt O00444); experiment: KINOMEscan competition binding; details: compound 10.0 µM
MAPK10 (human) = MAPK10 (human) (UniProt P53779); experiment: KINOMEscan competition binding; details: compound 10.0 µM
CAMK1D (human) = CAMK1D (human) (UniProt Q8IU85); experiment: KINOMEscan competition binding; details: compound 10.0 µM
CAMK1D (human), sequence (Q8IU85 whole entry, looked up): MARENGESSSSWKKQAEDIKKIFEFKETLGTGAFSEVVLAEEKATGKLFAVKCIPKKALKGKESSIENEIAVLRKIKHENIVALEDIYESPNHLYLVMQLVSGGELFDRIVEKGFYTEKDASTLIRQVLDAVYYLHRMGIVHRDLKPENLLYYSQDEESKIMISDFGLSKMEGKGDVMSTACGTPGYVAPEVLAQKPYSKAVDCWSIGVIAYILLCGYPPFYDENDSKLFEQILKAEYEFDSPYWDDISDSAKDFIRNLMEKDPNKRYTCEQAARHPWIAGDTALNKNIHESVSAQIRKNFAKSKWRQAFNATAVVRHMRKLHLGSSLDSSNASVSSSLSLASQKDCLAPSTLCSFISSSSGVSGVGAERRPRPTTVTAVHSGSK

GSK3A (human) = GSK3A (human) (UniProt P49840); experiment: KINOMEscan competition binding; details: compound 10.0 µM
CAMK1 (human) = CAMK1 (human) (UniProt Q14012); experiment: KINOMEscan competition binding; details: compound 10.0 µM
MAP2K3 (human) = MAP2K3 (human) (UniProt P46734); experiment: KINOMEscan competition binding; details: compound 10.0 µM
STK17B (human) = STK17B (human) (UniProt O94768); experiment: KINOMEscan competition binding; details: compound 10.0 µM
CLK2 (human) = CLK2 (human) (UniProt P49760); experiment: KINOMEscan competition binding; details: compound 10.0 µM
AAK1 (human) = AAK1 (human) (UniProt Q2M2I8); experiment: KINOMEscan competition binding; details: compound 10.0 µM
PAK4 (human) = PAK4 (human) (UniProt O96013); experiment: KINOMEscan competition binding; details: compound 10.0 µM
DAPK1 (human) = DAPK1 (human) (UniProt P53355); experiment: KINOMEscan competition binding; details: compound 10.0 µM
DAPK1 (human), sequence (P53355 whole entry, looked up): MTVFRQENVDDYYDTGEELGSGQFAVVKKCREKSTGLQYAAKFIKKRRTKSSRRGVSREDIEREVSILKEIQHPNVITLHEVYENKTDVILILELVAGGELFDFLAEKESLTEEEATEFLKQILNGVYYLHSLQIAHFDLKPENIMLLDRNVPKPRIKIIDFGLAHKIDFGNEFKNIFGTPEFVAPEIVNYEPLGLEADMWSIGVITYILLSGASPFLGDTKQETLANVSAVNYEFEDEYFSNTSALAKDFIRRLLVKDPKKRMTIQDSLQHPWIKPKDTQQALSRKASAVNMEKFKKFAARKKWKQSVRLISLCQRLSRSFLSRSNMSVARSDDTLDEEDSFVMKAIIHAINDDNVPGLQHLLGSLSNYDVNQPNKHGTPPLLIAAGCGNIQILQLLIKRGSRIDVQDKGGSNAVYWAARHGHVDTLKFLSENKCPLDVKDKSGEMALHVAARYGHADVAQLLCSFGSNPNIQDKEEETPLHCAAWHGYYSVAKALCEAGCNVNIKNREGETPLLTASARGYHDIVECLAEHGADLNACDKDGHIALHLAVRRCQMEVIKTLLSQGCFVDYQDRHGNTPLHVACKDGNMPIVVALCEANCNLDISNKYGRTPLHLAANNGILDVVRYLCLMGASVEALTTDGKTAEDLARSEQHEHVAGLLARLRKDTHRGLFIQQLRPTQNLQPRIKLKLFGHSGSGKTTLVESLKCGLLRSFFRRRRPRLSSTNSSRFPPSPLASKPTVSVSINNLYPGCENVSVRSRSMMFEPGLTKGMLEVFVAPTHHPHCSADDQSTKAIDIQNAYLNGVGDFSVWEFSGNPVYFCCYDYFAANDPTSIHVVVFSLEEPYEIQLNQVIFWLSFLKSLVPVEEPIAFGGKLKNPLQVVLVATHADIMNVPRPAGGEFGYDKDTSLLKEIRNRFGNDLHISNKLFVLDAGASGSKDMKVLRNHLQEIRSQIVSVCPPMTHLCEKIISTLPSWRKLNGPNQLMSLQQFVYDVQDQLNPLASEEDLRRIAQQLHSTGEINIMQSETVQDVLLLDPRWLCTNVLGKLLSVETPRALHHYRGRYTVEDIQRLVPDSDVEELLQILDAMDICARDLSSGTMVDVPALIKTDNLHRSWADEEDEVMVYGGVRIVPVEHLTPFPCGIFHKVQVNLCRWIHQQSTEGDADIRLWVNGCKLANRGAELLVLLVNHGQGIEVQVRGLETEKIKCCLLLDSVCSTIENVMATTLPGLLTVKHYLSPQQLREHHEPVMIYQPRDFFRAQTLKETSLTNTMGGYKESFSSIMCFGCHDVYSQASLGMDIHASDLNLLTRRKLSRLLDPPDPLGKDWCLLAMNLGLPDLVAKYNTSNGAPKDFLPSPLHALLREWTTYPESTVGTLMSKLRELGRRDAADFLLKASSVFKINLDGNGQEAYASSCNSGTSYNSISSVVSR

PAK7 (human) = PAK7 (human) (UniProt Q9P286); experiment: KINOMEscan competition binding; details: compound 10.0 µM
DAPK3 (human) = DAPK3 (human) (UniProt O43293); experiment: KINOMEscan competition binding; details: compound 10.0 µM
MYLK (human) = MYLK (human) (UniProt Q15746); experiment: KINOMEscan competition binding; details: compound 10.0 µM
GAK (human) = GAK (human) (UniProt O14976); experiment: KINOMEscan competition binding; details: compound 10.0 µM
CAMK2B (human) = CAMK2B (human) (UniProt Q13554); experiment: KINOMEscan competition binding; details: compound 10.0 µM
CAMK2B (human), sequence (Q13554 whole entry, looked up): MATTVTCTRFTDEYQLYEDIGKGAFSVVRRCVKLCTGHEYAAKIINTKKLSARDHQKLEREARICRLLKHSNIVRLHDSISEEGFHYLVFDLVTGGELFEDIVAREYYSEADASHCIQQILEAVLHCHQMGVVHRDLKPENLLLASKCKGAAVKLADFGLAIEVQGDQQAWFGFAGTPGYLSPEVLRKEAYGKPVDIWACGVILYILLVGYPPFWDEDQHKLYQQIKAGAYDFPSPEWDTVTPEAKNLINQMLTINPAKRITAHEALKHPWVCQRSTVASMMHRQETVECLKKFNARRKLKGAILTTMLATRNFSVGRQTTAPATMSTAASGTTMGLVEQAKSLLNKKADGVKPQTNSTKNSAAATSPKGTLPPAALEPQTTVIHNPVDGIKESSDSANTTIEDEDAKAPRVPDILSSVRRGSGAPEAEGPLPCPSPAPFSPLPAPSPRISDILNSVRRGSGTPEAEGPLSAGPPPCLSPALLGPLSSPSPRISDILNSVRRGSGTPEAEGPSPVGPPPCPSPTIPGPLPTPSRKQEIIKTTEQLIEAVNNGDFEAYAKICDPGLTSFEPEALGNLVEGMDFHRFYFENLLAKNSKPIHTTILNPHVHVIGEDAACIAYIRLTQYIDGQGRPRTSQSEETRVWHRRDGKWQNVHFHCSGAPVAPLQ

TTK (human) = TTK (human) (UniProt P33981); experiment: KINOMEscan competition binding; details: compound 10.0 µM
TTK (human), sequence (P33981 whole entry, looked up): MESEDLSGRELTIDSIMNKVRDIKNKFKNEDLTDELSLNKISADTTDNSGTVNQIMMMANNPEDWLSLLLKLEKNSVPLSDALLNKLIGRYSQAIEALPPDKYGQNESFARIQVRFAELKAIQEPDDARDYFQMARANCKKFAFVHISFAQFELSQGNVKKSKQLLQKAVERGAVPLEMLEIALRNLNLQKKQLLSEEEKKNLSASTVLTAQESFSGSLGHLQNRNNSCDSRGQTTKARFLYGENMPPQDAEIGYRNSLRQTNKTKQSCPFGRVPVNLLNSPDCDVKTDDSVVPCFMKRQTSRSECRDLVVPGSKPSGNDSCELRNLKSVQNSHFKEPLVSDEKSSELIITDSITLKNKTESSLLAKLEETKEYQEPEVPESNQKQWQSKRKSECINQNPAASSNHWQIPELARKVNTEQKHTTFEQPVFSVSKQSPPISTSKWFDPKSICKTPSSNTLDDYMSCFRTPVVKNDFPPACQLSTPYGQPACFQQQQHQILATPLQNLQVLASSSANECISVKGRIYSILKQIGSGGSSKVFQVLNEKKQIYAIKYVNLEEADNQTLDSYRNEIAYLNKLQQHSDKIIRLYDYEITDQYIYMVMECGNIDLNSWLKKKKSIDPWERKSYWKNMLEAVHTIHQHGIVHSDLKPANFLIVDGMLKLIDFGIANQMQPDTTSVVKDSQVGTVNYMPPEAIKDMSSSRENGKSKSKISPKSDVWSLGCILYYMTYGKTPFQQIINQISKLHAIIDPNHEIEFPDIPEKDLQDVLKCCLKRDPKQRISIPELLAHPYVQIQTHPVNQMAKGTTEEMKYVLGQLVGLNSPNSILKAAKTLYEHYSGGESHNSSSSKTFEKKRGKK

PIM1 (human) [3] = target: PIM1 (human) (UniProt P11309); experiment: KINOMEscan competition binding; details: compound 10.0 µM
TAOK1 (human) = TAOK1 (human) (UniProt Q7L7X3); experiment: KINOMEscan competition binding; details: compound 10.0 µM
PIM2 (human) [4] = target: PIM2 (human) (UniProt Q9P1W9); experiment: KINOMEscan competition binding; details: compound 10.0 µM
[5] = target: TYK2 JH2 pseudokinase (human) (UniProt P29597); experiment: KINOMEscan competition binding; details: compound 10.0 µM
TGFBR2 (human) = TGFBR2 (human) (UniProt P37173); experiment: KINOMEscan competition binding; details: compound 10.0 µM
STK17A (human) = STK17A (human) (UniProt Q9UEE5); experiment: KINOMEscan competition binding; details: compound 10.0 µM
DAPK2 (human) = DAPK2 (human) (UniProt Q9UIK4); experiment: KINOMEscan competition binding; details: compound 10.0 µM
PHKG2 (human) = PHKG2 (human) (UniProt P15735); experiment: KINOMEscan competition binding; details: compound 10.0 µM
MAP3K7 (human) = MAP3K7 (human) (UniProt O43318); experiment: KINOMEscan competition binding; details: compound 10.0 µM
LATS2 (human) = LATS2 (human) (UniProt Q9NRM7); experiment: KINOMEscan competition binding; details: compound 10.0 µM
LATS2 (human), sequence (Q9NRM7 whole entry, looked up): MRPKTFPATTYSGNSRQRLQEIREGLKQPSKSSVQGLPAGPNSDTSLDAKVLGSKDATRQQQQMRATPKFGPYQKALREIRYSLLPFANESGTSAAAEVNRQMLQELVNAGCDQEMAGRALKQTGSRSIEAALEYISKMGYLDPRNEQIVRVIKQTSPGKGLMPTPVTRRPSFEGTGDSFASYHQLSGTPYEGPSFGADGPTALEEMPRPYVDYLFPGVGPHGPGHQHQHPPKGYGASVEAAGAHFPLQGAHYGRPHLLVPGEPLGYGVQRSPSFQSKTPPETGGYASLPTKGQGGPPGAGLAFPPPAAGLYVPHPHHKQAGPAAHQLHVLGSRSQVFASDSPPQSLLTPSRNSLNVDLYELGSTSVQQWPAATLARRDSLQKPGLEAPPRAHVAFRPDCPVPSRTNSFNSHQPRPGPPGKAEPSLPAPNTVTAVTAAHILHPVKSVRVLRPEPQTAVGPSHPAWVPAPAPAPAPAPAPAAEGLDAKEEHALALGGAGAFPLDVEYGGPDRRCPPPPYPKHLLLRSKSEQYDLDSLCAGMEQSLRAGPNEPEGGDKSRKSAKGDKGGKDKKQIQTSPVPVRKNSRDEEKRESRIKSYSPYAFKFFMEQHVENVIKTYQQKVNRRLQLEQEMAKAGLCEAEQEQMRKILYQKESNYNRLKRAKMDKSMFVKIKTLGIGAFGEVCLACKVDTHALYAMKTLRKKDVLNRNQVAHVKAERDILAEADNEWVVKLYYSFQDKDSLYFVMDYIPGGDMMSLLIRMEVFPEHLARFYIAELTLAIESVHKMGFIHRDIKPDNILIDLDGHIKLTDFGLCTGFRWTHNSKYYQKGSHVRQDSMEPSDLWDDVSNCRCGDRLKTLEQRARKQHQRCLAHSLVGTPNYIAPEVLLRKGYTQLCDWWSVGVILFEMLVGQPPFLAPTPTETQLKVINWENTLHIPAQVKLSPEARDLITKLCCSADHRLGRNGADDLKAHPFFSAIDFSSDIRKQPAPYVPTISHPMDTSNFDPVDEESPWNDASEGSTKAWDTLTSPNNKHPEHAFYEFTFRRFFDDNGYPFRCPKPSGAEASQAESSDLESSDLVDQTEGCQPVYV

PIK3CD (human) = PIK3CD (human) (UniProt O00329); experiment: KINOMEscan competition binding; details: compound 10.0 µM
MAP2K4 (human) = MAP2K4 (human) (UniProt P45985); experiment: KINOMEscan competition binding; details: compound 10.0 µM
PIK3CB (human) = PIK3CB (human) (UniProt P42338); experiment: KINOMEscan competition binding; details: compound 10.0 µM
[6] = test system: EGFR (human), P00533 [P753S; 747-752 del]; experiment: KINOMEscan competition binding; details: compound 10.0 µM
[7] = test system: EGFR (human), P00533 [G719S]; experiment: KINOMEscan competition binding; details: compound 10.0 µM
MAP2K2 (human) = MAP2K2 (human) (UniProt P36507); experiment: KINOMEscan competition binding; details: compound 10.0 µM
[8] = test system: EGFR (human), P00533 [747-751 del / S ins]; experiment: KINOMEscan competition binding; details: compound 10.0 µM
PIK3C2B (human) = PIK3C2B (human) (UniProt O00750); experiment: KINOMEscan competition binding; details: compound 10.0 µM

PIM2 (human), sequence (Q9P1W9 whole entry, looked up): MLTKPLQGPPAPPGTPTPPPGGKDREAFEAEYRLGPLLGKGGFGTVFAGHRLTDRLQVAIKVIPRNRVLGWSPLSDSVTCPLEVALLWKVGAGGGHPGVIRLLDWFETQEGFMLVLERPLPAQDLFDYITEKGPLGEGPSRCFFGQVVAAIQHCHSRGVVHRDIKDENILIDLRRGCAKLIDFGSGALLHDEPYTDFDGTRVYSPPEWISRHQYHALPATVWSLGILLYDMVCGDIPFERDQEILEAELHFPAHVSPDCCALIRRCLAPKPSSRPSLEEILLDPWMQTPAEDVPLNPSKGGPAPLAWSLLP
PIM1 (human), sequence (P11309 whole entry, looked up): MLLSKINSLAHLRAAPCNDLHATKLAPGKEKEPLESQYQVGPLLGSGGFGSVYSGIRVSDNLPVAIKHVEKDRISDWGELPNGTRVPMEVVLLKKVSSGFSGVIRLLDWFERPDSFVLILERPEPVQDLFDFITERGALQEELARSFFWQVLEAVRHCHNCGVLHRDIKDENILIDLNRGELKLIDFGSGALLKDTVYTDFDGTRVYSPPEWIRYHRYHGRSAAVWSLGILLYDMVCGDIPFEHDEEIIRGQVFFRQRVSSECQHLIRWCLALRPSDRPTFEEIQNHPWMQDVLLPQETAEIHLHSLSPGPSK

- IC50 (PIM1 (human) [1]): 5050 nM
- IC50 (PIM2 (human) [2]): 662 nM
- kinase still bound, per cent of control (ACVR2B (human)): 24%
- kinase still bound, per cent of control (RIPK4 (human)): 1%
- kinase still bound, per cent of control (DDR1 (human)): 22%
- kinase still bound, per cent of control (EPHA3 (human)): 32%
- kinase still bound, per cent of control (CSNK2A2 (human)): 34%
- kinase still bound, per cent of control (MAPK8 (human)): 14%
- kinase still bound, per cent of control (CSK (human)): 30%
- kinase still bound, per cent of control (STK16 (human)): 22%
- kinase still bound, per cent of control (TAOK3 (human)): 5.6%
- kinase still bound, per cent of control (PIM3 (human)): 1.9%
- kinase still bound, per cent of control (PAK6 (human)): 30%
- kinase still bound, per cent of control (HIPK1 (human)): 0.15%
- kinase still bound, per cent of control (PLK4 (human)): 1%
- kinase still bound, per cent of control (MAPK10 (human)): 16%
- kinase still bound, per cent of control (CAMK1D (human)): 29%
- kinase still bound, per cent of control (GSK3A (human)): 32%
- kinase still bound, per cent of control (CAMK1 (human)): 20%
- kinase still bound, per cent of control (MAP2K3 (human)): 20%
- kinase still bound, per cent of control (STK17B (human)): 0.6%
- kinase still bound, per cent of control (CLK2 (human)): 21%
- kinase still bound, per cent of control (AAK1 (human)): 26%
- kinase still bound, per cent of control (PAK4 (human)): 29%
- kinase still bound, per cent of control (DAPK1 (human)): 32%
- kinase still bound, per cent of control (PAK7 (human)): 34%
- kinase still bound, per cent of control (DAPK3 (human)): 15%
- kinase still bound, per cent of control (MYLK (human)): 21%
- kinase still bound, per cent of control (GAK (human)): 28%
- kinase still bound, per cent of control (CAMK2B (human)): 29%
- kinase still bound, per cent of control (TTK (human)): 18%
- kinase still bound, per cent of control (PIM1 (human) [3]): 1.8%
- kinase still bound, per cent of control (TAOK1 (human)): 5.8%
- kinase still bound, per cent of control (PIM2 (human) [4]): 0.5%
- kinase still bound, per cent of control [5]: 2.6%
- kinase still bound, per cent of control (TGFBR2 (human)): 11%
- kinase still bound, per cent of control (STK17A (human)): 2.4%
- kinase still bound, per cent of control (DAPK2 (human)): 7.1%
- kinase still bound, per cent of control (PHKG2 (human)): 29%
- kinase still bound, per cent of control (MAP3K7 (human)): 13%
- kinase still bound, per cent of control (LATS2 (human)): 31%
SMILES: Cc1cn(-c2cc(NC(=O)c3cccc4cc(-c5ccc(/C=C6\SC(=N)NC6=O)o5)ccc34)cc(C(F)(F)F)c2)cn1

- kinase still bound, per cent of control (PIK3CD (human)): 0%
- kinase still bound, per cent of control (MAP2K4 (human)): 12%
- kinase still bound, per cent of control (PIK3CB (human)): 0%
- kinase still bound, per cent of control [6]: 16%
- kinase still bound, per cent of control [7]: 6.9%
- kinase still bound, per cent of control (MAP2K2 (human)): 17%
- kinase still bound, per cent of control [8]: 17%
- kinase still bound, per cent of control (PIK3C2B (human)): 0.6%
SMILES: O=C1NC(=O)C(=Cc2ccc(-c3ccc(S(=O)(=O)N4CCNCC4)cc3)o2)C(=O)N1
